Source: patent US7625948B2, “Ester compound and medicinal use thereof” (Japan Tobacco Inc., priority 2002, dated 2009)
Where two headings read alike, the source gives them in different places.

Tests used:
[1] = molecular target: T1, Microsomal triglyceride transfer protein (MTP) from bovine liver (Bos taurus, UniProt P55156); test: Test Example 1: inhibition of interliposomal triglyceride (TG) transfer activity by MTP (also used for metabolites in Test Example 8); assay type: biochemical
T1 construct: from tissue; host or cells: bovine liver
T1 sequence (P55156 12-887): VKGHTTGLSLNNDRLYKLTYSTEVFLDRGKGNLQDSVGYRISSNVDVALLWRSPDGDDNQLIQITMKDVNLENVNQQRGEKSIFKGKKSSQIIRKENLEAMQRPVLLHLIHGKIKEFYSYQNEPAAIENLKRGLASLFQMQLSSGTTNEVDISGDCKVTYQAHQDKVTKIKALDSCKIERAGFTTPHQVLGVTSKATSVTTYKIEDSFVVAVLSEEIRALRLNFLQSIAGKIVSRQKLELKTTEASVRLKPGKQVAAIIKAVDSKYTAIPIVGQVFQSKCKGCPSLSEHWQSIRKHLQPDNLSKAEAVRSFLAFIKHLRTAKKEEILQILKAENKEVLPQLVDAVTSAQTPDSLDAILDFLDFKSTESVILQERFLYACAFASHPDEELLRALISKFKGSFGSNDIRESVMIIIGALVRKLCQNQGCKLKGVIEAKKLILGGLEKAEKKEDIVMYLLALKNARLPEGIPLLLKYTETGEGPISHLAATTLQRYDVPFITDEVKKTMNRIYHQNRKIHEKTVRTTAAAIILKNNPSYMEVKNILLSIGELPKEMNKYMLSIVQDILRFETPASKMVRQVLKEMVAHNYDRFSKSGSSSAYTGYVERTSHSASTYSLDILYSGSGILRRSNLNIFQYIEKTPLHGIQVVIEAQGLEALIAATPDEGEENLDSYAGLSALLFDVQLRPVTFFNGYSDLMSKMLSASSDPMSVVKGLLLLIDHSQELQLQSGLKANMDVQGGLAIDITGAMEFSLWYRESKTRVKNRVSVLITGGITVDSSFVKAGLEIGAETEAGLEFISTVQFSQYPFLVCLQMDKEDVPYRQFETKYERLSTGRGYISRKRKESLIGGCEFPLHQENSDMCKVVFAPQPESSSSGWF
T1 sequence (P05307 21-510 partner): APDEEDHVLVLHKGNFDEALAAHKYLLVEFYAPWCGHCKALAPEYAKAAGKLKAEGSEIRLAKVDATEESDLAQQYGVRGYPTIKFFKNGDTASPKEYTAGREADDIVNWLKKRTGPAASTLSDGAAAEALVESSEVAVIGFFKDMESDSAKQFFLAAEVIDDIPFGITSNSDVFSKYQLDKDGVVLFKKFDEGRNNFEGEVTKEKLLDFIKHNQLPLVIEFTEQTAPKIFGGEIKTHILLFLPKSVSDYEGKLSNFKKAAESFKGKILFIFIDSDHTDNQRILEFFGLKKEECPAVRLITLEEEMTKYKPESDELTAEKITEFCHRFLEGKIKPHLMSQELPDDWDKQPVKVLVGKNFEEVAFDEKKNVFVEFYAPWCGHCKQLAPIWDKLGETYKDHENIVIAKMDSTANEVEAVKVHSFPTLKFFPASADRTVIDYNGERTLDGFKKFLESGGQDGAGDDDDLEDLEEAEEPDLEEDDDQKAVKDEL
Experimental: Inhibition of Interliposomal Triglyceride (TG) Transfer Activity by MTP
Microsomal triglyceride transfer protein (MTP) from bovine liver was partially purified in such a way described below. A buffer (50 mM Tris, 250 mM sucrose, 1 mM EDTA, 0.02% NaN3 (pH 7.4)) for making a homogenate preparation was added to bovine liver, and the mixture was homogenated under ice-cooling, then centrifuged at 10,000×g (4° C., 30 minutes). The supernatant was adjusted to pH 5.1 with hydrochloric acid, and stirred for 30 minutes. The solution was further centrifuged at 10,000×g (4° C., 30 minutes), and 1 mM Tris buffer was added to the precipitated residue, and the mixture was adjusted to pH 8.6 with sodium hydroxide. After addition of 2.7M ammonium sulfate solution, the mixture was stirred for 30 minutes, then centrifuged at 10,000×g (4° C., 40 minutes). The resulting supernatant was served as a crude extraction fraction of MTP and stored at −80° C. under freezing. In its practical use, the crude extraction fraction of MTP was purified by column chromatography on diethylaminoethyl (DEAE) Sepharose using FPLC (Fast Performance Liquid Chromatography) system, and the purified MTP was used for the test.
Small unilamellar-vesicle (SUV) liposome (donor, 0.25 mol % triolein, 5 mol % cardiolipin) labeled with ^14C-triolein and non-labeled SUV liposome (acceptor, 0.25 mol % triolein) were prepared. A fixed amount of donor and acceptor, and MTP were mixed with a sample dissolved in DMSO or with DMSO. The mixture was incubated in a 15 mM Tris hydrochloride buffer (pH 7.4) containing 40 mM sodium chloride, 1 mM EDTA (ethylenediaminetetraacetic acid), 0.02% NaN3 and 0.5% bovine serum albumin at 37° C. for one hour. After completion of the incubation, a suspension of DEAE cellulose (50% v/v) in 15 mM Tris hydrochloride buffer (pH 7.4) was added to the above solution, and the mixture was centrifuged to separate the donor and the acceptor. The radioactivity in the acceptor was measured by liquid scintillation counter. The value obtained by subtracting the radioactivity in the blank from the amount of radioactivity in the acceptor of a DMSO group was determined as MTP-mediated TG transfer activity, and it was compared with the value obtained by subtracting the radioactivity in the blank from the radioactivity in a sample group. The blank was prepared by adding 15 mM Tris-HCl buffer (pH 7.4) in place of MTP. Inhibition rate (%) was calculated from the values obtained according to the following equation.
Inhibition rate (%)=100×(1 minus ((radioactivity of sample group minus radioactivity of blank group)/(radioactivity of DMSO group minus radioactivity of blank group))).
50% Inhibition rate (IC50) was determined on the basis of the above equation.
Inhibitory Activity on MTP and apo B Secretion Inhibition by Metabolites
In a similar manner to Test Examples 1 and 2, the activity of metabolites was assayed.

HepG2 cells = test: Test Example 2: inhibition of apolipoprotein B secretion from HepG2 cells, ELISA (also used for metabolites in Test Example 8); assay type: cell-based; settings: Homo sapiens
Summary of the method: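 HepG2 cells cultured 24 h, then exposed 24 h to compounds or metabolites in medium with 0.5% DMSO. Secreted apo B in supernatant quantified by sandwich ELISA (HRP, ABTS, 405 nm) against purified human apo B standard; % inhibition vs DMSO group, IC50 derived.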

[2] = MTP-mediated 14C-triolein transfer between liposomes, 37° C., one hour, read-out: Test Example 1 MTP inhibition IC50
[3] = 24 hours, apo B in supernatant by ELISA, read-out: Test Example 2 Inhibition of apo B secretion IC50
[4] = main metabolites of the compounds (Test Example 8), read-out: MTP inhibition IC50
[5] = main metabolites of the compounds (Test Example 8), read-out: Inhibition of apo B secretion IC50

IC50 [1, 2] [nM] | IC50 (HepG2 cells; [3]) [nM] | IC50 [1, 4] [nM] | IC50 (HepG2 cells; [5]) [nM] | Structure (SMILES)
37.5 | 720 |  |  | O=C(Cc1ccc(NC(=O)c2ccccc2-c2ccc(C(F)(F)F)cc2)cc1)OCC(C(=O)NCC(F)(F)F)c1ccccc1 (stereo not drawn) [Example 1-8]
3.9 | 260 |  |  | CCOC(=O)C(CCOC(=O)Cc1ccc(C)c(NC(=O)c2ccccc2-c2ccc(C(F)(F)F)cc2)c1)(C(=O)OCC)c1ccccc1 [Example 5-6]
6.9 | 2.1 |  |  | CCOC(=O)C(COC(=O)Cc1ccc(NC(=O)c2ccccc2-c2ccc(C(F)(F)F)cc2)c(C(F)(F)F)c1)(C(=O)OCC)c1ccccc1 [Example 1-40]
32 | 22 |  |  | CC(C)OC(=O)C(COC(=O)Cc1ccc(NC(=O)c2ccccc2-c2ccc(C(F)(F)F)cc2)cc1)(C(=O)OC(C)C)c1ccccc1 [Example 1-11]
66.5 | 875 |  |  | CCOC(=O)C(COC(=O)Cc1cccc(NC(=O)c2ccccc2-c2ccc(C(F)(F)F)cc2)c1)(C(=O)OCC)c1ccccc1 [Example 5-2]
5.2 | 510 |  |  | O=C(Nc1ccccc1-c1ccccc1)c1ccc(C(=O)OCCC2(C(=O)NCC(F)(F)F)c3ccccc3-c3ccccc32)cc1 [Example 6-3]
84.5 | 61 |  |  | CCOC(=O)C(COC(=O)Cc1ccc(NC(=O)c2ccccc2-c2ccc(C(F)(F)F)cc2)cc1)(C(=O)OCC)C1CCCCC1 [Example 1-31]
6.2 | 86.5 |  |  | CCOC(=O)C(CCOC(=O)Cc1cccc(NC(=O)c2ccccc2-c2ccc(C(F)(F)F)cc2)c1)(C(=O)OCC)c1ccccc1 [Example 5-3]
4.5 | 750 |  |  | CCOC(=O)C(COC(=O)Cc1ccc(NC(=O)c2ccccc2-c2ccc(OC)cc2)cc1)(C(=O)OCC)c1ccccc1 [Example 1-47]
9.8 | 920 |  |  | CCNC(=O)C(CCOC(=O)c1ccc(OC(=O)c2ccccc2-c2ccc(C(F)(F)F)cc2)cc1)(C(=O)NCC)c1ccccc1 [Example 6-21]
27 | 28 |  |  | CC(C)CCNC(=O)C(COC(=O)Cc1ccc(NC(=O)c2ccccc2-c2ccc(C(F)(F)F)cc2)cc1)(C(=O)NCCC(C)C)c1ccccc1 [Example 1-67]
 |  | > 1000 | > 10000 | O=C(O)Cc1ccc(NC(=O)c2ccccc2-c2ccc(C(F)(F)F)cc2)cc1
8.6 | 720 |  |  | O=C(Cc1ccc(NC(=O)c2ccccc2-c2ccccc2)cc1)OCC(C(=O)NCC(F)(F)F)(C(=O)NCC(F)(F)F)c1ccccc1 [Example 1-32]
630 | 620 |  |  | CCOC(=O)C(COC(=O)Cc1ccc(NC(=O)c2ccccc2-c2ccc(C(F)(F)F)cc2)cc1)(Cc1ccccc1)C(=O)OCC [Example 1-26]
82 | 55 |  |  | CCOC(=O)C(COC(=O)Cc1ccc(NC(=O)c2ccccc2-c2ccc(C(F)(F)F)cc2)cc1)(C(=O)OCC)C1CCCC1 [Example 1-14]
 |  | > 1000 | > 10000 | CCNC(=O)C(CO)(C(=O)NCC)c1ccccc1
 |  | > 1000 | > 10000 | CCCNC(=O)C(CO)(C(=O)NCCC)c1ccccc1
10 | 690 |  |  | CCCCOc1ccccc1C(=O)Nc1ccc(CC(=O)OCC(C(=O)NCC)(C(=O)NCC)c2ccccc2)cc1 [Example 1-52]
5 | 46 |  |  | CCCOC(=O)C(COC(=O)Cc1ccc(NC(=O)c2ccccc2-c2ccc(C(F)(F)F)cc2)cc1)(C(=O)OCCC)c1ccccc1 [Example 1-62]
 |  | > 10000 | > 10000 | CN(C)C(=O)c1cc(CC(=O)O)ccc1NC(=O)c1ccccc1-c1ccc(C(F)(F)F)cc1
3.2 | 35 |  |  | CCNC(=O)C(CCOC(=O)c1ccc(NC(=O)c2ccccc2-c2ccc(C(F)(F)F)cc2)cc1)(C(=O)NCC)c1ccccc1 [Example 6-19]
2.7 | 0.61 |  |  | CCOC(=O)C(COC(=O)Cc1ccc(NC(=O)c2ccccc2-c2ccc(C(F)(F)F)cc2)c(C(=O)N2CCCCC2)c1)(C(=O)OCC)c1ccccc1 [Example 2-23]
4.4 | 35 |  |  | CCCCNC(=O)C(COC(=O)Cc1ccc(NC(=O)c2ccccc2-c2ccc(C(F)(F)F)cc2)cc1)(C(=O)NCCCC)c1ccccc1 [Example 1-42]
22 | 870 |  |  | O=C(OCCC(C(=O)NCC(F)(F)F)c1ccccc1)c1ccc(NC(=O)c2ccccc2-c2ccc(C(F)(F)F)cc2)cc1 (stereo not drawn) [Example 6-10]
6.3 | 87 |  |  | CCOC(=O)C(CCOC(=O)c1ccc(NC(=O)c2ccccc2-c2ccc(C(F)(F)F)cc2)cc1)(C(=O)OCC)c1ccccc1 [Example 6-14]
0.96 | 530 |  |  | CCNC(=O)C(COC(=O)Cc1ccc(NC(=O)c2ccccc2Oc2ccccc2)cc1)(C(=O)NCC)c1ccccc1 [Example 1-51]
66.5 | 180 |  |  | O=C(Cc1ccc(NC(=O)c2ccccc2-c2ccc(C(F)(F)F)cc2)cc1)OCC(C(=O)OC1CCCCC1)(C(=O)OC1CCCCC1)c1ccccc1 [Example 1-22]
5 | 8.4 |  |  | CC(C)NC(=O)C(COC(=O)Cc1ccc(NC(=O)c2ccccc2-c2ccc(C(F)(F)F)cc2)cc1)(C(=O)NC(C)C)c1ccccc1 [Example 1-25]
0.43 | 860 |  |  | CCOC(=O)C(COC(=O)Cc1ccc(NC(=O)c2ccccc2-c2cccc(C(F)(F)F)c2)cc1)(C(=O)OCC)c1ccccc1 [Example 1-53]

Structure (SMILES) | IC50 [1, 2] [nM] | IC50 (HepG2 cells; [3]) [nM] | IC50 [1, 4] [nM] | IC50 (HepG2 cells; [5]) [nM]
CCOC(=O)C(COC(=O)CN1CCC(NC(=O)c2ccccc2-c2ccc(C(F)(F)F)cc2)CC1)(C(=O)OCC)c1ccccc1 [Example 8, 2-Phenyl-2-(2-{4-[(4′-trifluoromethylbiphenyl-2-carbonyl)amino]piperidin-1-yl}acetoxymethyl)malonic acid diethyl ester] | 33 | 595 |  | 
